Laboratory results published in patent publication US12582640B2, “Treatment of lower respiratory tract infection with tradipitant” (Vanda Pharmaceuticals Inc., priority 2020, dated 2026).

Test system: severe or critical COVID-19 infection
Experiment: Randomized, double-blind, placebo-controlled study of tradipitant in hospitalized patients with COVID-19 pneumonia (interim analysis, ITT population)
Format: in vivo, human
Design: Mortality KM estimate: concentration or dose not given beside the values
Settings: for Mortality hazard ratio (95% CI) / Hazard ratio (95% CI), responder as improvement of 2 or more points / Odds ratio (95% CI), ordinal score at Day 7 / Odds ratio (95% CI), ordinal score at Day 28: tradipitant vs placebo; for Mortality hazard ratio (95% CI) / Hazard ratio (95% CI), responder as improvement of 2 or more points: Cox model; for Odds ratio (95% CI), ordinal score at Day 7 / Odds ratio (95% CI), ordinal score at Day 28: proportional odds model
From the text: A randomized, double-blind, placebo-controlled study investigates the efficacy of tradipitant in the treatment of inflammatory lung injury and pneumonia associated with severe or critical COVID-19 infection, and improvement of clinical outcomes associated with severe or critical COVID-19 infection. Such improvements in clinical outcomes include reduction in long term pulmonary function deficits and pulmonary fibrosis.
Methods: Prospective participants attend a screening visit on study day −1 to 0 to assess the prospective patient's eligibility to participate. All enrolled patients are asked to undertake an initial physical examination and must satisfy inclusion and exclusion criteria before being enrolled into the study. A total sample size of 300 patients (150 per arm) provides approximately 93% power to detect a 20% difference of normalization in fever and oxygen saturation, assuming 50% and 70% normalization rates in placebo and tradipitant treatment groups respectively, based on a two-sided Fisher's Exact Test at a 5% significance level.
Inclusion criteria include: adults aged 18-90; confirmed laboratory COVID-19 infection by RT-PCR; confirmed pneumonia by chest radiograph or computed tomography; fever defined as temperature ≥36.6° C. armpit, ≥37.2° C. oral, or ≥37.8° C. rectal; and oxygen saturation of less than 92% on room air OR on mechanical ventilation OR increased work of breathing (WOB) on exam without respiratory support OR respiratory rate greater than 20 per minute. Exclusion criteria include: recent use of illicit drugs or alcohol abuse; known allergy to tradipitant or other neurokinin-1 antagonists; pregnancy; known HIV, HBV, or HCV infection; malignant tumor, other serious systemic diseases; and inability to provide informed consent or to have an authorized relative or designated person provide informed consent, or to comply with the protocol requirements.
Patients who meet the inclusion-exclusion criteria are randomized 1:1 to treatment with either 85 mg tradipitant twice daily (bid) per os (PO, i.e. orally) or matching placebo under double-blind conditions, in addition to standard of care for COVID-19 infection according to protocol at the treating hospital. In both arms, treatment with study medication continues for 14 days or until discharge from the hospital. In both tradipitant treatment and placebo study arms, patients are given one capsule of study medication to be taken orally every day in the morning prior to or at 9:00 am and one capsule of study medication to be taken orally every day in the evening approximately 12 hours later (±1 hour). Patients in the tradipitant treatment arm receive capsules containing 85 mg tradipitant, as well as spray-dried lactose monohydrate, microcrystalline cellulose (Avicel PH102 and PH200), povidone, croscarmellose sodium, sodium lauryl sulfate, and magnesium stearate as excipients. The tradipitant capsules are white opaque, hard gelatin capsules. Placebo capsules are provided in size and appearance identical to those containing tradipitant.
For patients requiring administration via nasogastric tube, the following procedure is used: 1) empty contents of one 85 mg capsule in a glass mortar and grind using a pestle until all granules are thoroughly crushed; 2) add 10 mL of water while continuing to grind to obtain a uniform dispersion; 3) draw up entire dispersion into a suitable syringe; 4) connect syringe tip to nasogastric tube and push entire syringe contents; and 5) rinse mortar and pestle with 5 mL of water and repeat steps 3) and 4). The crushing procedure results in the preparation of a uniform dispersion in water, which can then be administered through a nasogastric tube without clogging.
Patient assessments are performed in accordance with the schedule of evaluations detailed in Table 1 below.
Mortality is assessed as the proportion of participants with in-hospital mortality, and is evaluated per treatment arm. […]

[1] = Day 7, baseline ordinal score 3
[2] = Day 7, baseline ordinal score 4
[3] = Day 28, baseline ordinal score 2
[4] = Day 28, baseline ordinal score 3
[5] = Day 28, baseline ordinal score 4
[6] = ITT overall, >1 benefit for tradipitant
[7] = baseline ordinal score 2 (N = 4)
[8] = baseline ordinal score 3 (N = 13)
[9] = baseline ordinal score 4 (N = 9)
[10] = tradipitant arm, 85 mg bid PO plus standard of care, interim analysis

O=C(c1ccccc1Cl)c1cccnc1-c1nnn(Cc2cc(C(F)(F)F)cc(C(F)(F)F)c2)c1-c1ccncc1 [Tradipitant, {2-[1-(3,5-bistrifluoromethylbenzyl)-5-pyridin-4-yl-1H-[1,2,3]triazol-4-yl]-pyridin-3-yl}-(2-chlorophenyl)-methanone]
Mortality KM estimate (Day 7, ITT overall): 9.8% | No. of responders (improvement of 2 or more points) (Day 7, ITT overall (N = 28)): 13 | Mortality hazard ratio (95% CI) (Day 7, ITT overall, <1 benefit for tradipitant): 2.65 | Mortality KM estimate (Day 7, baseline ordinal score 2): 25.0% | No. of responders (improvement of 2 or more points) (Day 7, baseline ordinal score 2 (N = 4)): 3 | Mortality KM estimate [1]: 0.0% | No. of responders (improvement of 2 or more points) (Day 7, baseline ordinal score 3 (N = 13)): 2 | Hazard ratio (95% CI), responder as improvement of 2 or more points [1]: 2.19 | Mortality KM estimate [2]: 25.0% | No. of responders (improvement of 2 or more points) (Day 7, baseline ordinal score 4 (N = 9)): 6 | Hazard ratio (95% CI), responder as improvement of 2 or more points [2]: 2.23 | Mortality hazard ratio (95% CI) [2]: 3.14 | Mortality KM estimate (Day 28, ITT overall): 20.4% | No. of responders (improvement of 2 or more points) (Day 28, ITT overall (N = 28)): 16 | Mortality hazard ratio (95% CI) (Day 28, ITT overall, <1 benefit for tradipitant): 1.03 | Mortality KM estimate [3]: 50.0% | No. of responders (improvement of 2 or more points) (Day 28, baseline ordinal score 2 (N = 4)): 3 | Mortality hazard ratio (95% CI) [3]: 1.84 | Mortality KM estimate [4]: 9.1% | No. of responders (improvement of 2 or more points) (Day 28, baseline ordinal score 3 (N = 13)): 4 | Hazard ratio (95% CI), responder as improvement of 2 or more points [4]: 1.08 | Mortality hazard ratio (95% CI) [4]: 0.95 | Mortality KM estimate [5]: 25.0% | No. of responders (improvement of 2 or more points) (Day 28, baseline ordinal score 4 (N = 9)): 7 | Hazard ratio (95% CI), responder as improvement of 2 or more points [5]: 1.59 | Mortality hazard ratio (95% CI) [5]: 1.24 | Median time to responder (95% CI) (Day 28 analysis, ITT overall (N = 28), listed as tradipitant): 10 days | No. of deaths by day 7 (ITT overall (N = 28)): 2 | No. of deaths by day 28 (ITT overall (N = 28)): 4 | Odds ratio (95% CI), ordinal score at Day 7 [6]: 1.05 | Odds ratio (95% CI), ordinal score at Day 28 [6]: 1.01 | No. of deaths by day 7 [7]: 1 | No. of deaths by day 28 [7]: 2 | Odds ratio (95% CI), ordinal score at Day 7 (baseline ordinal score 2): 0.43 | Odds ratio (95% CI), ordinal score at Day 28 (baseline ordinal score 2): 0.43 | No. of deaths by day 7 [8]: 0 | No. of deaths by day 28 [8]: 1 | Odds ratio (95% CI), ordinal score at Day 7 (baseline ordinal score 3): 2.69 | Odds ratio (95% CI), ordinal score at Day 28 (baseline ordinal score 3): 2.21 | No. of deaths by day 7 [9]: 1 | No. of deaths by day 28 [9]: 1 | Odds ratio (95% CI), ordinal score at Day 7 (baseline ordinal score 4): 0.40 | Odds ratio (95% CI), ordinal score at Day 28 (baseline ordinal score 4): 0.62 | mortality rate [10]: 14.2% | patients showing clinical improvement (at least a 2 point improvement in the 7 point ordinal scale) [10]: 57%
